The values that follow are results of earlier work, collected in patent US20220151952A1 (priority 2019, published 2022).

Take cannabidiol [CBD]: the “solubility in organic solvents” value (organic solvents, such as oil) was “soluble”. Further, the solubility in water result (water) is reported as “insoluble”.
